This note sets out measurements from patent US8318973B2, “Functionalized sinapic acid and methyl sinapate” (Bezwada Biomedical, LLC, priority 2005, dated 2012).

Structures are written as SMILES.

The nature of this data set: In vitro hydrolysis of functionalized phenolics in pH 7.4 buffer at reflux. It counts as physicochemical. Particulars: 500 mg compound in 50 mL pH 7.4 buffer, reflux temperature (100° C.), monitored by TLC. As for the experimental part:
In Vitro Hydrolysis of Functionalized Phenolics
A few selected compounds were examined for the rate of hydrolysis by conducting in vitro hydrolysis studies at reflux temperature (100° C.). For each experiment, 500 mg of a functionalized compound and 50 mL of pH 7.4 buffer solution (purchased from Aldrich chemical company) were charged into a 100 mL round bottom flask fitted with a condenser and the contents were refluxed. In vitro hydrolysis of the functionalized phenolic was monitored by thin layer chromatography (TLC) using corresponding starting material (original amino acid) as a control. In vitro hydrolysis was continued at reflux until the functionalized molecule hydrolyzed to the starting compound.
As for `COC(=O)COC(=O)c1ccc(OCC(=O)OC)cc1` [Example 78, 4-Methoxycarbonylmethoxy-benzoic acid methoxycarbonylmethyl ester], the “time in which the functionalized compound was hydrolyzed to the starting compound” value (from here on “time”) came to 33.0 h.
Regarding `COC(=O)COC(=O)c1ccccc1OCC(=O)OC` [Example 79, 2-Methoxycarbonylmethoxy-benzoic acid methoxycarbonylmethyl ester], the “time” value is listed as “eight”.
Under `COC(=O)COC(=O)C(C)c1ccc2cc(OCC(=O)OC)ccc2c1` (stereo not shown) [Example 92, 2-(6-Methoxycarbonylmethoxy-naphthalen-2-yl)-propionic acid Methoxy Carbonyl methyl ester] stands “four”; under `COC(=O)COC(=O)COc1ccc(OCC(=O)OCC(=O)OC)cc1` [Example 84, (4-Methoxycarbonylmethoxycarbonylmethoxy-phenoxy)-acetic acid methoxycarbonyl methyl ester], “one”; under `COC(=O)COC(=O)COc1ccc(N)cc1` [Example 96, (4-Amino-phenoxy)-acetic acid methoxycarbonylmethyl ester], “three”.
Under `COC(=O)C(C)OC(=O)COc1ccc(OCC(=O)OC(C)C(=O)OC)cc1` (stereo not shown) [Example 85, 2-{2-[4-(1-Methoxycarbonyl-ethoxycarbonylmethoxy)-phenoxy]-acetoxy}-propionic acid methyl ester] stands “two”; under `COC(=O)COC(=O)COc1ccccc1C(=O)OCC(=O)OC` [Example 81, 2-Methoxycarbonylmethoxycarbonylmethoxy-benzoic acid methoxycarbonyl methyl ester], “two”; under `COC(=O)COC(=O)COc1ccc2cc(C(C)C(=O)OCC(=O)OC)ccc2c1` (stereo not shown) [Example 90, 2-(6-Methoxycarbonylmethoxycarbonylmethoxy-naphthalen-2-yl)-propionic acid Methoxy Carbonylmethyl ester], “four”.
Under `COC(=O)COC(=O)COc1ccc(-c2coc3cc(OCC(=O)OCC(=O)OC)ccc3c2=O)cc1` [Example 98, [4-(7-Methoxycarbonylmethoxycarbonylmethoxy-4-oxo-4H-chromen-3-yl)-phenoxy]-acetic acid methoxycarbonylmethyl ester] stands “ten”.
`COC(=O)COC(=O)COc1ccc(C(=O)OCC(=O)OC)cc1` [Example 77, 4-Methoxycarbonylmethoxycarbonylmethoxy-benzoic acid methoxycarbonyl methyl ester]: the “time” value was 26.5 h.
